pIC50: −log10 of the molar value. Values after ≈ are worked out from the molar mass of the structure shown. Active and inactive are the calls of the source. The rule behind the calls is not given here.
Assays:
[1] = molecular target: Metallo-beta-lactamase type 2 (Bacteria, UniProt C7C422); experiment: Inhibition of N-terminal truncated NDM1 (1 to 49N residues) (unknown origin) extracted from Escherichia coli BL21(DE3) cells using FC5 as substrate preincubated for 10 mins followed by substrate addition and measured immediately by fluorescence based analysis
[2] = Inhibition of IMP-1 (unknown origin) using FC5 as substrate preincubated for 10 mins followed by substrate addition and measured immediately by fluorescence based analysis; design: species or system Bacteria
[3] = Inhibition of VIM-1 (unknown origin) using FC5 as substrate preincubated for 10 mins followed by substrate addition and measured immediately by fluorescence based analysis; design: species or system Bacteria
[4] = molecular target: Metallo-beta-lactamase type 2 (Bacteria) (UniProt C7C422); experiment: Induction of thermal stabilization of NDM-1 (unknown origin) assessed as melting temperature at 3.12 uM by differential scanning fluorimetry analysis
[5] = molecular target: Metallo-beta-lactamase type 2 (Bacteria) (UniProt C7C422); experiment: Induction of thermal stabilization of NDM-1 (unknown origin) assessed as melting temperature at 50 uM by differential scanning fluorimetry analysis
[6] = molecular target: Metallo-beta-lactamase type 2 (Bacteria) (UniProt C7C422); experiment: Induction of thermal stabilization of NDM-1 (unknown origin) assessed as increase in melting temperature by differential scanning fluorimetry analysis; conditions: dose 3.12-50 µM
Klebsiella pneumoniae [7] = experiment: Synergistic antibacterial activity against Klebsiella pneumoniae ATCC BAA 2146 expressing NDM-1 measured after 16 to 18 hrs in presence of meropenem by microbial dilution method; type: functional, organism-based; conditions: time 16-18 hrs
[8] = molecular target: Metallo-beta-lactamase type 2 (Bacteria) (UniProt C7C422); experiment: Induction of thermal stabilization of NDM-1 (unknown origin) assessed as melting temperature at 25 uM by differential scanning fluorimetry analysis
[9] = molecular target: Metallo-beta-lactamase type 2 (Bacteria) (UniProt C7C422); experiment: Induction of thermal stabilization of NDM-1 (unknown origin) assessed as melting temperature at 6.25 uM by differential scanning fluorimetry analysis
Klebsiella pneumoniae [10] = experiment: Synergistic antibacterial activity against Klebsiella pneumoniae ATCC BAA 2146 expressing NDM-1 measured after 16 to 18 hrs in presence of imipenem by microbial dilution method; type: functional, organism-based; conditions: time 16-18 hrs
[11] = molecular target: Metallo-beta-lactamase type 2 (Bacteria) (UniProt C7C422); experiment: Induction of thermal stabilization of NDM-1 (unknown origin) assessed as melting temperature at 12.5 uM by differential scanning fluorimetry analysis
Escherichia coli [12] = experiment: Antibacterial activity against carbapenem-resistant Escherichia coli BAA-2471 assessed as reduction in microbial growth measured after 16 to 18 hrs by microbial dilution method; type: functional; conditions: time 16-18 hrs
Escherichia coli [13] = experiment: microbe, parasite or virus in culture; conditions: 567975
Description: Antibacterial activity against carbapenem-resistant Escherichia coli 567975 assessed as reduction in microbial growth measured after 16 to 18 hrs by microbial dilution method

Klebsiella pneumoniae [14] = experiment: Anti-infective activity against carbapenem-resistant Klebsiella pneumoniae ATCC BAA 2146 expressing NDM-1 infected in neutropenic female BALB/c mouse deep thigh infection model assessed as reduction in bacterial count at 20 mg/kg, sc pre-infected with bacteria for 2 hrs followed by compound addition and measured after 26 hrs; type: functional
Escherichia coli [15] = experiment: Antibacterial activity against carbapenem-resistant Escherichia coli BAA-2469 assessed as reduction in microbial growth measured after 16 to 18 hrs by microbial dilution method; type: functional; conditions: time 16-18 hrs
Escherichia coli [16] = experiment: Antibacterial activity against carbapenem-resistant Escherichia coli 571307 assessed as reduction in microbial growth measured after 16 to 18 hrs by microbial dilution method; type: functional; conditions: time 16-18 hrs
Klebsiella pneumoniae [17] = experiment: Antibacterial activity against carbapenem-resistant Klebsiella pneumoniae 571278 assessed as reduction in microbial growth measured after 16 to 18 hrs by microbial dilution method; type: functional; conditions: time 16-18 hrs
Klebsiella pneumoniae [18] = experiment: Antibacterial activity against carbapenem-resistant Klebsiella pneumoniae 565345 assessed as reduction in microbial growth measured after 16 to 18 hrs by microbial dilution method; type: functional; conditions: time 16-18 hrs
[19] = system: Klebsiella pneumoniae subsp. pneumoniae; experiment: Antibacterial activity against carbapenem-resistant Klebsiella pneumoniae subsp. pneumoniae BAA-2470 assessed as reduction in microbial growth measured after 16 to 18 hrs by microbial dilution method; type: functional; conditions: time 16-18 hrs
Enterobacter cloacae = experiment: Antibacterial activity against carbapenem-resistant Enterobacter cloacae BAA-2468 assessed as reduction in microbial growth measured after 16 to 18 hrs by microbial dilution method; type: functional; conditions: time 16-18 hrs
Klebsiella pneumoniae [20] = experiment: Antibacterial activity against carbapenem-resistant Klebsiella pneumoniae 538961 assessed as reduction in microbial growth measured after 16 to 18 hrs by microbial dilution method; type: functional; conditions: time 16-18 hrs
[21] = system: Klebsiella pneumoniae subsp. pneumoniae; experiment: Antibacterial activity against carbapenem-resistant Klebsiella pneumoniae subsp. pneumoniae BAA-2472 assessed as reduction in microbial growth measured after 16 to 18 hrs by microbial dilution method; type: functional; conditions: time 16-18 hrs
Escherichia coli [22] = experiment: microbe, parasite or virus in culture; conditions: 565988
Description: Antibacterial activity against carbapenem-resistant Escherichia coli 565988 assessed as reduction in microbial growth measured after 16 to 18 hrs by microbial dilution method

Klebsiella pneumoniae [23] = experiment: Antibacterial activity against carbapenem-resistant Klebsiella pneumoniae 552439 assessed as reduction in microbial growth measured after 16 to 18 hrs by microbial dilution method; type: functional; conditions: time 16-18 hrs
Klebsiella pneumoniae [24] = experiment: Antibacterial activity against carbapenem-resistant Klebsiella pneumoniae BAA-2473 assessed as reduction in microbial growth measured after 16 to 18 hrs by microbial dilution method; type: functional; conditions: time 16-18 hrs
Escherichia coli [25] = experiment: microbe, parasite or virus in culture; conditions: 541588
Description: Antibacterial activity against carbapenem-resistant Escherichia coli 541588 assessed as reduction in microbial growth measured after 16 to 18 hrs by microbial dilution method

Metallo-beta-lactamase type 2, sequence (C7C422 whole entry, the tested form may be a part): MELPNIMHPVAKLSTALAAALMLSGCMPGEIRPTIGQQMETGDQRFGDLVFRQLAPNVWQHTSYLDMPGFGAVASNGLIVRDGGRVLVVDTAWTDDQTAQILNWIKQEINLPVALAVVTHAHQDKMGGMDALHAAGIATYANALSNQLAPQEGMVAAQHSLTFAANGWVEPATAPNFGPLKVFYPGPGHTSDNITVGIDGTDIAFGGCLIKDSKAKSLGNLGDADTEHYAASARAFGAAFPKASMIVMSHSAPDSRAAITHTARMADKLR
Metallo-beta-lactamase type 2 (Bacteria), sequence (C7C422 whole entry): as the sequence (C7C422 whole entry, the tested form may be a part) above

| SMILES | pIC50 [1] | pIC50 [2] | pIC50 [3] | further results |
| --- | --- | --- | --- | --- |
| O=C(O)c1[nH]c2c(c1-c1ccc(Cl)cc1Cl)CCc1ccccc1-2 | 8.70 | 5.01 | 6.37 | – |
| O=C(O)c1ccccn1 [2-PICOLINIC ACID] | 4.86 | < 3.70 | < 3.70 | – |
| O=C(O)c1[nH]c2c(c1-c1cccc(F)c1)CCc1ccccc1-2 | 8.09 | 5.52 | 6.39 | – |
| COc1ccccc1-c1c(C(=O)O)[nH]c2c1CCc1ccccc1-2 | 6.73 | 5.52 | 6.00 | – |
| O=C(O)c1[nH]c2c(c1-c1cc(F)cc(Cl)c1)CCc1ccccc1-2 | 8.72 | 6.83 | 7.32 | Tm [4]: 9 °C; Tm [5]: 17 °C; Activity [6]: Active; Activity (Klebsiella pneumoniae [7]): Active; Tm [8]: 16 °C; ΔTm [9]: 13 °C; Activity (Klebsiella pneumoniae [10]): Active; Tm [11]: 15 °C |
| O=C(O)c1[nH]c2c(c1-c1cncc(F)c1)CCc1ccccc1-2 | 7.21 | 5.39 | 5.68 | – |
| O=C(O)c1[nH]c2c(c1-c1ccccc1Cl)CCc1ccccc1-2 | 8.51 | 6.00 | 6.66 | – |
| C[C@@H](O)[C@H]1C(=O)N2C(C(=O)O)=C(SCCNC=N)C[C@H]12 [IMIPENEM ANHYDROUS] | – | – | – | MIC (Escherichia coli [12]): 64 mg/L; MIC (Escherichia coli [13]): 16 mg/L (≈ 53.4 µM); Activity (Klebsiella pneumoniae [14]): ~1.15 log10CFU/ml; MIC (Escherichia coli [15]): 64 mg/L; MIC (Escherichia coli [16]): 32 mg/L; MIC (Klebsiella pneumoniae [17]): 16 mg/L; MIC (Klebsiella pneumoniae [18]): 32 mg/L; MIC [19]: 16 mg/L; MIC (Enterobacter cloacae): > 64 mg/L; MIC (Klebsiella pneumoniae [20]): 64 mg/L; MIC [21]: > 64 mg/L; MIC (Escherichia coli [22]): 8 mg/L (≈ 26.7 µM); MIC (Klebsiella pneumoniae [23]): 32 mg/L; MIC (Klebsiella pneumoniae [24]): > 64 mg/L; MIC (Escherichia coli [25]): 8 mg/L (≈ 26.7 µM) |
| COc1ccc(-c2c(C(=O)O)[nH]c3c2CCc2ccccc2-3)cc1 | 6.04 | – | 4.47 | – |
| O=C(O)c1[nH]c2c(c1-c1ccccc1)CCc1ccccc1-2 | 6.95 | 5.07 | 5.43 | – |
| C[C@@H](O)[C@H]1C(=O)N2C(C(=O)O)=C(S[C@@H]3CN[C@H](C(=O)N(C)C)C3)[C@H](C)[C@H]12 [MEROPENEM] | – | – | – | MIC (Escherichia coli [12]): > 64 mg/L; MIC (Escherichia coli [13]): 64 mg/L (≈ 167 µM); MIC (Escherichia coli [15]): 64 mg/L; MIC (Escherichia coli [16]): 64 mg/L; MIC (Klebsiella pneumoniae [17]): 64 mg/L; MIC (Klebsiella pneumoniae [18]): 64 mg/L; MIC [19]: 32 mg/L; MIC (Enterobacter cloacae): > 64 mg/L; MIC (Klebsiella pneumoniae [20]): > 64 mg/L; MIC [21]: > 64 mg/L; MIC (Escherichia coli [22]): 64 mg/L (≈ 167 µM); MIC (Klebsiella pneumoniae [23]): > 64 mg/L; MIC (Klebsiella pneumoniae [24]): > 64 mg/L; MIC (Escherichia coli [25]): 64 mg/L (≈ 167 µM) |
| COc1ccc(F)cc1-c1c(C(=O)O)[nH]c2c1CCc1ccccc1-2 | 8.12 | 6.42 | 6.57 | – |
| Cc1cc(C)cc(-c2c(C(=O)O)[nH]c3c2CCc2ccccc2-3)c1 | 8.33 | 5.92 | 6.48 | – |
| CC(C)(C)c1ccc(-c2c(C(=O)O)[nH]c3c2CCc2ccccc2-3)cc1 | 7.82 | 5.07 | 6.10 | – |
| O=C(O)c1[nH]c2c(c1-c1cncc(Cl)c1)CCc1ccccc1-2 | 8.64 | 5.82 | 6.71 | – |
| NCCN[C@H]1CC[C@H](CC(=O)N[C@H]2Cc3cccc(C(=O)O)c3OB2O)CC1 | – | 4.42 | 6.98 | – |
| O=C(O)c1[nH]c2c(c1-c1cc(F)cc(F)c1)CCc1ccccc1-2 | 7.33 | 5.25 | 6.24 | – |

— ChEMBL document CHEMBL6109129, “Discovery of Conformationally Constrained Dihydro Benzo-Indole Derivatives as Metallo-β-Lactamase Inhibitors to Tackle Multidrug-Resistant Bacterial Infections” (J Med Chem, 2025)
